Calls of active or inactive are those of the source. Unless noted, no cut-off for these calls is given here.
tested on: Rotala indica; experiment: Post-emergence herbicidal activity against Rotala indica assessed as bleaching of stem/leaf parts; assay type: functional, organism-based; conditions: not given; note: test concentration or dose not given here

Compound	Activity
Cn1cc(C(=O)NOc2ccccc2Cl)c(OCc2cccc(C(F)(F)F)c2)n1	Active
Cn1cc(C(=O)Nc2ccc(Cl)cc2Cl)c(OCc2cccc(C(F)(F)F)c2)n1	Active

tested on: Lindernia procumbens; experiment: Pre-emergence herbicidal activity against Lindernia procumbens at 500 g a.i/ha measured after 14 days; assay type: functional, organism-based; conditions: not given

Compound	Activity
Cn1cc(C(=O)NOc2ccccc2Cl)c(OCc2cccc(C(F)(F)F)c2)n1	Active
Cn1cc(C(=O)Nc2ccc(Cl)cc2Cl)c(OCc2cccc(C(F)(F)F)c2)n1	Active

tested on: Eleocharis acicularis; experiment: Pre-emergence herbicidal activity against Eleocharis acicularis assessed as bleaching of stem/leaf parts; assay type: functional, organism-based; conditions: not given

Compound	Activity
Cn1cc(C(=O)NOc2ccccc2Cl)c(OCc2cccc(C(F)(F)F)c2)n1	Active
Cn1cc(C(=O)Nc2ccc(Cl)cc2Cl)c(OCc2cccc(C(F)(F)F)c2)n1	Active

tested on: Lindernia procumbens; experiment: Pre-emergence herbicidal activity against Lindernia procumbens at 100 g a.i/ha measured after 14 days; assay type: functional, organism-based; conditions: not given

Compound	Activity
Cn1cc(C(=O)NOc2ccccc2Cl)c(OCc2cccc(C(F)(F)F)c2)n1	Active
Cn1cc(C(=O)Nc2ccc(Cl)cc2Cl)c(OCc2cccc(C(F)(F)F)c2)n1	Active

tested on: Lindernia procumbens; experiment: Pre-emergence herbicidal activity against Lindernia procumbens assessed as bleaching of stem/leaf parts; assay type: functional, organism-based; conditions: not given

Compound	Activity
Cn1cc(C(=O)NOc2ccccc2Cl)c(OCc2cccc(C(F)(F)F)c2)n1	Active
Cn1cc(C(=O)Nc2ccc(Cl)cc2Cl)c(OCc2cccc(C(F)(F)F)c2)n1	Active

tested on: Schoenoplectiella juncoides; experiment: Pre-emergence herbicidal activity against Schoenoplectiella juncoides assessed as bleaching of stem/leaf parts; assay type: functional, organism-based; conditions: not given

Compound	Activity
Cn1cc(C(=O)NOc2ccccc2Cl)c(OCc2cccc(C(F)(F)F)c2)n1	Active
Cn1cc(C(=O)Nc2ccc(Cl)cc2Cl)c(OCc2cccc(C(F)(F)F)c2)n1	Active

tested on: Schoenoplectiella juncoides; experiment: Post-emergence herbicidal activity against Schoenoplectiella juncoides assessed as bleaching of stem/leaf parts; assay type: functional, organism-based; conditions: not given; note: test concentration or dose not given here

Compound	Activity
Cn1cc(C(=O)NOc2ccccc2Cl)c(OCc2cccc(C(F)(F)F)c2)n1	Active
Cn1cc(C(=O)Nc2ccc(Cl)cc2Cl)c(OCc2cccc(C(F)(F)F)c2)n1	Active

tested on: Rotala indica; experiment: Pre-emergence herbicidal activity against Rotala indica assessed as bleaching of stem/leaf parts; assay type: functional, organism-based; conditions: not given

Compound	Activity
Cn1cc(C(=O)NOc2ccccc2Cl)c(OCc2cccc(C(F)(F)F)c2)n1	Active
Cn1cc(C(=O)Nc2ccc(Cl)cc2Cl)c(OCc2cccc(C(F)(F)F)c2)n1	Active

tested on: Elatine triandra; experiment: Post-emergence herbicidal activity against Elatine triandra assessed as bleaching of stem/leaf parts; assay type: functional, organism-based; conditions: not given; note: test concentration or dose not given here

Compound	Activity
Cn1cc(C(=O)NOc2ccccc2Cl)c(OCc2cccc(C(F)(F)F)c2)n1	Active
Cn1cc(C(=O)Nc2ccc(Cl)cc2Cl)c(OCc2cccc(C(F)(F)F)c2)n1	Active

tested on: Echinochloa oryzicola; experiment: Pre-emergence herbicidal activity against Echinochloa oryzicola at 100 g a.i/ha measured after 14 days; assay type: functional, organism-based; conditions: not given

Compound	Activity
Cn1cc(C(=O)NOc2ccccc2Cl)c(OCc2cccc(C(F)(F)F)c2)n1	inactive
Cn1cc(C(=O)Nc2ccc(Cl)cc2Cl)c(OCc2cccc(C(F)(F)F)c2)n1	inactive

tested on: Ammannia multiflora; experiment: Pre-emergence herbicidal activity against Ammannia multiflora assessed as bleaching of stem/leaf parts; assay type: functional, organism-based; conditions: not given

Compound	Activity
Cn1cc(C(=O)NOc2ccccc2Cl)c(OCc2cccc(C(F)(F)F)c2)n1	Active
Cn1cc(C(=O)Nc2ccc(Cl)cc2Cl)c(OCc2cccc(C(F)(F)F)c2)n1	Active

tested on: Pontederia vaginalis; experiment: Pre-emergence herbicidal activity against Monochoria vaginalis at 100 g a.i/ha measured after 14 days; assay type: functional, organism-based; conditions: not given

Compound	Activity
Cn1cc(C(=O)NOc2ccccc2Cl)c(OCc2cccc(C(F)(F)F)c2)n1	Active
Cn1cc(C(=O)Nc2ccc(Cl)cc2Cl)c(OCc2cccc(C(F)(F)F)c2)n1	Active

tested on: Schoenoplectiella juncoides; experiment: Pre-emergence herbicidal activity against Schoenoplectiella juncoides at 500 g a.i/ha measured after 14 days; assay type: functional, organism-based; conditions: not given

Compound	Activity
Cn1cc(C(=O)NOc2ccccc2Cl)c(OCc2cccc(C(F)(F)F)c2)n1	Active
Cn1cc(C(=O)Nc2ccc(Cl)cc2Cl)c(OCc2cccc(C(F)(F)F)c2)n1	Active

tested on: Pontederia vaginalis; experiment: Pre-emergence herbicidal activity against Monochoria vaginalis at 500 g a.i/ha measured after 14 days; assay type: functional, organism-based; conditions: not given

Compound	Activity
Cn1cc(C(=O)NOc2ccccc2Cl)c(OCc2cccc(C(F)(F)F)c2)n1	Active
Cn1cc(C(=O)Nc2ccc(Cl)cc2Cl)c(OCc2cccc(C(F)(F)F)c2)n1	Active

tested on: Echinochloa oryzicola; experiment: Post-emergence herbicidal activity against Echinochloa oryzicola assessed as bleaching of stem/leaf parts; assay type: functional, organism-based; conditions: not given; note: test concentration or dose not given here

Compound	Activity
Cn1cc(C(=O)NOc2ccccc2Cl)c(OCc2cccc(C(F)(F)F)c2)n1	Active
Cn1cc(C(=O)Nc2ccc(Cl)cc2Cl)c(OCc2cccc(C(F)(F)F)c2)n1	Active

tested on: Ammannia multiflora; experiment: Pre-emergence herbicidal activity against Ammannia multiflora at 100 g a.i/ha measured after 14 days; assay type: functional, organism-based; conditions: not given

Compound	Activity
Cn1cc(C(=O)NOc2ccccc2Cl)c(OCc2cccc(C(F)(F)F)c2)n1	Active
Cn1cc(C(=O)Nc2ccc(Cl)cc2Cl)c(OCc2cccc(C(F)(F)F)c2)n1	Active

tested on: Cyperus difformis; experiment: Pre-emergence herbicidal activity against Cyperus difformis assessed as bleaching of stem/leaf parts; assay type: functional, organism-based; conditions: not given

Compound	Activity
Cn1cc(C(=O)NOc2ccccc2Cl)c(OCc2cccc(C(F)(F)F)c2)n1	Active
Cn1cc(C(=O)Nc2ccc(Cl)cc2Cl)c(OCc2cccc(C(F)(F)F)c2)n1	Active

tested on: Lindernia procumbens; experiment: Post-emergence herbicidal activity against Lindernia procumbens assessed as bleaching of stem/leaf parts; assay type: functional, organism-based; conditions: not given; note: test concentration or dose not given here

Compound	Activity
Cn1cc(C(=O)NOc2ccccc2Cl)c(OCc2cccc(C(F)(F)F)c2)n1	Active
Cn1cc(C(=O)Nc2ccc(Cl)cc2Cl)c(OCc2cccc(C(F)(F)F)c2)n1	Active

tested on: Eleocharis acicularis; experiment: Post-emergence herbicidal activity against Eleocharis acicularis assessed as bleaching of stem/leaf parts; assay type: functional, organism-based; conditions: not given; note: test concentration or dose not given here

Compound	Activity
Cn1cc(C(=O)NOc2ccccc2Cl)c(OCc2cccc(C(F)(F)F)c2)n1	Active
Cn1cc(C(=O)Nc2ccc(Cl)cc2Cl)c(OCc2cccc(C(F)(F)F)c2)n1	Active

tested on: Cyperus difformis; experiment: Pre-emergence herbicidal activity against Cyperus difformis at 100 g a.i/ha measured after 14 days; assay type: functional, organism-based; conditions: not given

Compound	Activity
Cn1cc(C(=O)NOc2ccccc2Cl)c(OCc2cccc(C(F)(F)F)c2)n1	Active
Cn1cc(C(=O)Nc2ccc(Cl)cc2Cl)c(OCc2cccc(C(F)(F)F)c2)n1	Active

tested on: Elatine triandra; experiment: Pre-emergence herbicidal activity against Elatine triandra assessed as bleaching of stem/leaf parts; assay type: functional, organism-based; conditions: not given

Compound	Activity
Cn1cc(C(=O)NOc2ccccc2Cl)c(OCc2cccc(C(F)(F)F)c2)n1	Active
Cn1cc(C(=O)Nc2ccc(Cl)cc2Cl)c(OCc2cccc(C(F)(F)F)c2)n1	Active

tested on: Oryza sativa; experiment: Phytotoxicity against Oryza sativa cv. Koshihikari (rice) at 100 g a.i/ha measured after 14 days; assay type: organism-based; conditions: in vivo, 336 h

Compound	Activity
Cn1cc(C(=O)NOc2ccccc2Cl)c(OCc2cccc(C(F)(F)F)c2)n1	Non-toxic
Cn1cc(C(=O)Nc2ccc(Cl)cc2Cl)c(OCc2cccc(C(F)(F)F)c2)n1	Non-toxic

tested on: Cyperus difformis; experiment: Post-emergence herbicidal activity against Cyperus difformis assessed as bleaching of stem/leaf parts; assay type: functional, organism-based; conditions: not given; note: test concentration or dose not given here

Compound	Activity
Cn1cc(C(=O)NOc2ccccc2Cl)c(OCc2cccc(C(F)(F)F)c2)n1	Active
Cn1cc(C(=O)Nc2ccc(Cl)cc2Cl)c(OCc2cccc(C(F)(F)F)c2)n1	Active

tested on: Ammannia multiflora; experiment: Post-emergence herbicidal activity against Ammannia multiflora assessed as bleaching of stem/leaf parts; assay type: functional, organism-based; conditions: not given; note: test concentration or dose not given here

Compound	Activity
Cn1cc(C(=O)NOc2ccccc2Cl)c(OCc2cccc(C(F)(F)F)c2)n1	Active
Cn1cc(C(=O)Nc2ccc(Cl)cc2Cl)c(OCc2cccc(C(F)(F)F)c2)n1	Active

tested on: Rotala indica; experiment: Pre-emergence herbicidal activity against Rotala indica at 100 g a.i/ha measured after 14 days; assay type: functional, organism-based; conditions: not given

Compound	Activity
Cn1cc(C(=O)NOc2ccccc2Cl)c(OCc2cccc(C(F)(F)F)c2)n1	Active
Cn1cc(C(=O)Nc2ccc(Cl)cc2Cl)c(OCc2cccc(C(F)(F)F)c2)n1	Active

tested on: Echinochloa oryzicola; experiment: Pre-emergence herbicidal activity against Echinochloa oryzicola at 500 g a.i/ha measured after 14 days; assay type: functional, organism-based; conditions: not given

Compound	Activity
Cn1cc(C(=O)NOc2ccccc2Cl)c(OCc2cccc(C(F)(F)F)c2)n1	Active
Cn1cc(C(=O)Nc2ccc(Cl)cc2Cl)c(OCc2cccc(C(F)(F)F)c2)n1	Active

tested on: Pontederia vaginalis; experiment: Pre-emergence herbicidal activity against Monochoria vaginalis assessed as bleaching of stem/leaf parts; assay type: functional, organism-based; conditions: not given

Compound	Activity
Cn1cc(C(=O)NOc2ccccc2Cl)c(OCc2cccc(C(F)(F)F)c2)n1	Active
Cn1cc(C(=O)Nc2ccc(Cl)cc2Cl)c(OCc2cccc(C(F)(F)F)c2)n1	Active

tested on: Ammannia multiflora; experiment: Pre-emergence herbicidal activity against Ammannia multiflora at 500 g a.i/ha measured after 14 days; assay type: functional, organism-based; conditions: not given

Compound	Activity
Cn1cc(C(=O)NOc2ccccc2Cl)c(OCc2cccc(C(F)(F)F)c2)n1	Active
Cn1cc(C(=O)Nc2ccc(Cl)cc2Cl)c(OCc2cccc(C(F)(F)F)c2)n1	Active

tested on: Elatine triandra; experiment: Pre-emergence herbicidal activity against Elatine triandra at 100 g a.i/ha measured after 14 days; assay type: functional, organism-based; conditions: not given

Compound	Activity
Cn1cc(C(=O)NOc2ccccc2Cl)c(OCc2cccc(C(F)(F)F)c2)n1	Active
Cn1cc(C(=O)Nc2ccc(Cl)cc2Cl)c(OCc2cccc(C(F)(F)F)c2)n1	Active

tested on: Eleocharis acicularis; experiment: Pre-emergence herbicidal activity against Eleocharis acicularis at 100 g a.i/ha measured after 14 days; assay type: functional, organism-based; conditions: not given

Compound	Activity
Cn1cc(C(=O)NOc2ccccc2Cl)c(OCc2cccc(C(F)(F)F)c2)n1	Active
Cn1cc(C(=O)Nc2ccc(Cl)cc2Cl)c(OCc2cccc(C(F)(F)F)c2)n1	Active

tested on: Rotala indica; experiment: Pre-emergence herbicidal activity against Rotala indica at 500 g a.i/ha measured after 14 days; assay type: functional, organism-based; conditions: not given

Compound	Activity
Cn1cc(C(=O)NOc2ccccc2Cl)c(OCc2cccc(C(F)(F)F)c2)n1	Active
Cn1cc(C(=O)Nc2ccc(Cl)cc2Cl)c(OCc2cccc(C(F)(F)F)c2)n1	Active

tested on: Cyperus difformis; experiment: Pre-emergence herbicidal activity against Cyperus difformis at 500 g a.i/ha measured after 14 days; assay type: functional, organism-based; conditions: not given

Compound	Activity
Cn1cc(C(=O)NOc2ccccc2Cl)c(OCc2cccc(C(F)(F)F)c2)n1	Active
Cn1cc(C(=O)Nc2ccc(Cl)cc2Cl)c(OCc2cccc(C(F)(F)F)c2)n1	Active

tested on: Echinochloa oryzicola; experiment: Pre-emergence herbicidal activity against Echinochloa oryzicola assessed as bleaching of stem/leaf parts; assay type: functional, organism-based; conditions: not given

Compound	Activity
Cn1cc(C(=O)NOc2ccccc2Cl)c(OCc2cccc(C(F)(F)F)c2)n1	Active
Cn1cc(C(=O)Nc2ccc(Cl)cc2Cl)c(OCc2cccc(C(F)(F)F)c2)n1	Active

tested on: Oryza sativa; experiment: Phytotoxicity against Oryza sativa cv. Koshihikari (rice) at 500 g a.i/ha measured after 14 days; assay type: organism-based; conditions: in vivo, 336 h

Compound	Activity
Cn1cc(C(=O)NOc2ccccc2Cl)c(OCc2cccc(C(F)(F)F)c2)n1	Non-toxic
Cn1cc(C(=O)Nc2ccc(Cl)cc2Cl)c(OCc2cccc(C(F)(F)F)c2)n1	Toxic

tested on: Schoenoplectiella juncoides; experiment: Pre-emergence herbicidal activity against Schoenoplectiella juncoides at 100 g a.i/ha measured after 14 days; assay type: functional, organism-based; conditions: not given

Compound	Activity
Cn1cc(C(=O)NOc2ccccc2Cl)c(OCc2cccc(C(F)(F)F)c2)n1	inactive
Cn1cc(C(=O)Nc2ccc(Cl)cc2Cl)c(OCc2cccc(C(F)(F)F)c2)n1	inactive

tested on: Pontederia vaginalis; experiment: Post-emergence herbicidal activity against Monochoria vaginalis assessed as bleaching of stem/leaf parts; assay type: functional, organism-based; conditions: not given; note: test concentration or dose not given here

Compound	Activity
Cn1cc(C(=O)NOc2ccccc2Cl)c(OCc2cccc(C(F)(F)F)c2)n1	Active
Cn1cc(C(=O)Nc2ccc(Cl)cc2Cl)c(OCc2cccc(C(F)(F)F)c2)n1	Active

tested on: Eleocharis acicularis; experiment: Pre-emergence herbicidal activity against Eleocharis acicularis at 500 g a.i/ha measured after 14 days; assay type: functional, organism-based; conditions: not given

Compound	Activity
Cn1cc(C(=O)NOc2ccccc2Cl)c(OCc2cccc(C(F)(F)F)c2)n1	Active
Cn1cc(C(=O)Nc2ccc(Cl)cc2Cl)c(OCc2cccc(C(F)(F)F)c2)n1	Active

tested on: Elatine triandra; experiment: Pre-emergence herbicidal activity against Elatine triandra at 500 g a.i/ha measured after 14 days; assay type: functional, organism-based; conditions: not given

Compound	Activity
Cn1cc(C(=O)NOc2ccccc2Cl)c(OCc2cccc(C(F)(F)F)c2)n1	Active
Cn1cc(C(=O)Nc2ccc(Cl)cc2Cl)c(OCc2cccc(C(F)(F)F)c2)n1	Active

Source: ChEMBL document CHEMBL3046635, “Synthesis and Herbicidal Activity of New Pyrazole-4-carboxamide Derivatives” (J Pestic Sci, 2004)
